Laboratory results as given in patent US7998978B2 (Pfizer Inc., priority 2006, dated 2011).

The compounds below were run against T1, JNK1α1 (Homo sapiens, UniProt P45983) (assay: Coupled spectrophotometric (PK/LDH) JNK1α1 assay: % inhibition and Ki determination). Details: @1 uM; read-out: % Inhibition JNK-1.
T1 construct: catalytic domain containing amino acids 1-364 and N-terminal hexahistidine tag; hexahistidine (His6) (N); made in house; host or cells: E. coli BL21 (DE3)
Type: biochemical
Outline: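 Initial rates were taken from the absorbance decrease at 340 nm at 30° C. Ki was fitted with a tight-binding model over 11 concentrations (top 100 μM); single-point inhibition was tested at 1 or 10 μM.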

T1 sequence (P45983 1-364): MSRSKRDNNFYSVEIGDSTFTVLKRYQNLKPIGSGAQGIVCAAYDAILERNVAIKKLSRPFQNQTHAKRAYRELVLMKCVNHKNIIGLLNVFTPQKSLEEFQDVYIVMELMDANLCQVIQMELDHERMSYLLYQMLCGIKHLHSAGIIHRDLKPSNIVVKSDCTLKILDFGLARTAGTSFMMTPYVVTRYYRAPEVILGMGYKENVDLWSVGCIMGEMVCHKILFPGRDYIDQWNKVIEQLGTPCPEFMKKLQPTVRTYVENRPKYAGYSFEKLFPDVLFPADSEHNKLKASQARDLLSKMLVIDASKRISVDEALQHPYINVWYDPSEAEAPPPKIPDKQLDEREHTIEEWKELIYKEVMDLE

| Structure (SMILES) | inhibition at 1 µM [%] |
| --- | --- |
| COC[C@H]1CCC[C@H]1NC(=O)c1cccc2cnc(N[C@H]3CC[C@H](O)CC3)nc12 [Example 506, 2-[(trans-4-hydroxycyclohexyl)amino]-N-[(1R,2S)-2-(methoxymethyl)cyclopentyl]quinazoline-8-carboxamide] | 37 |
| O=C(NCCn1cccn1)c1cccc2cnc(N[C@H]3CC[C@H](O)CC3)nc12 [Example 507, 2-[(trans-4-hydroxycyclohexyl)amino]-N-[2-(1H-pyrazol-1-yl)ethyl]quinazoline-8-carboxamide] | 25 |
| CCN1CC(CNC(=O)c2cccc3cnc(N[C@H]4CC[C@H](O)CC4)nc23)CC1=O (stereo partly drawn) [Example 508, N-[(1-ethyl-5-oxopyrrolidin-3-yl)methyl]-2-[(trans-4-hydroxycyclohexyl)amino]quinazoline-8-carboxamide] | 21 |
| O=C(NCc1nc(-c2ccccc2)no1)c1cccc2cnc(N[C@H]3CC[C@H](O)CC3)nc12 [Example 513, 2-[(trans-4-hydroxycyclohexyl)amino]-N-[(3-phenyl-1,2,4-oxadiazol-5-yl)methyl]quinazoline-8-carboxamide] | 21 |
| Cc1nnc(CNC(=O)c2cccc3cnc(N[C@H]4CC[C@H](O)CC4)nc23)o1 [Example 514, 2-[(trans-4-hydroxycyclohexyl)amino]-N-[(5-methyl-1,3,4-oxadiazol-2-yl)methyl]quinazoline-8-carboxamide] | 11 |
| O=C(NCCC1CCCCO1)c1cccc2cnc(N[C@H]3CC[C@H](O)CC3)nc12 (stereo partly drawn) [Example 515, 2-[(trans-4-hydroxycyclohexyl)amino]-N-[2-(tetrahydro-2H-pyran-2-yl)ethyl]quinazoline-8-carboxamide] | 19 |
| CNC(=O)[C@H](C)NC(=O)c1cccc2cnc(N[C@H]3CC[C@H](O)CC3)nc12 [Example 516, 2-[(trans-4-hydroxycyclohexyl)amino]-N-[(1S)-1-methyl-2-(methylamino)-2-oxoethyl]quinazoline-8-carboxamide] | 26 |
| O=C(N[C@H]1CCN(C(=O)c2ccccc2)C1)c1cccc2cnc(N[C@H]3CC[C@H](O)CC3)nc12 [Example 517, N-(1-benzoylpyrrolidin-3-yl)-2-[(trans-4-hydroxycyclohexyl)amino]quinazoline-8-carboxamide] | 16 |
| CC(=O)N1CCC(NC(=O)c2cccc3cnc(N[C@H]4CC[C@H](O)CC4)nc23)CC1 [Example 519, N-(1-acetylpiperidin-4-yl)-2-[(trans-4-hydroxycyclohexyl)amino]quinazoline-8-carboxamide] | 9 |
| Cn1c(CCNC(=O)c2cccc3cnc(N[C@H]4CC[C@H](O)CC4)nc23)nc2cccnc21 [Example 520, 2-[(trans-4-hydroxycyclohexyl)amino]-N-[2-(3-methyl-3H-imidazo[4,5-b]pyridin-2-yl)ethyl]quinazoline-8-carboxamide] | 10 |
| Cc1cc(CNC(=O)c2cccc3cnc(N[C@H]4CC[C@H](O)CC4)nc23)nn1C [Example 521, N-[(1,5-dimethyl-1H-pyrazol-3-yl)methyl]-2-[(trans-4-hydroxycyclohexyl)amino]quinazoline-8-carboxamide] | 49 |
| Cc1nnc(CCNC(=O)c2cccc3cnc(N[C@H]4CC[C@H](O)CC4)nc23)o1 [Example 522, 2-[(trans-4-hydroxycyclohexyl)amino]-N-[2-(5-methyl-1,3,4-oxadiazol-2-yl)ethyl]quinazoline-8-carboxamide] | 18 |
| Cc1noc(C(NC(=O)c2cccc3cnc(N[C@H]4CC[C@H](O)CC4)nc23)c2ccccc2)n1 (stereo partly drawn) [Example 527, 2-[(trans-4-hydroxycyclohexyl)amino]-N-[(3-methyl-1,2,4-oxadiazol-5-yl)(phenyl)methyl]quinazoline-8-carboxamide] | 34 |
| O=C(NCCn1ccccc1=O)c1cccc2cnc(N[C@H]3CC[C@H](O)CC3)nc12 [Example 528, 2-[(trans-4-hydroxycyclohexyl)amino]-N-[2-(2-oxopyridin-1(2H)-yl)ethyl]quinazoline-8-carboxamide] | 26 |
| CCN1CC(CNC(=O)c2cccc3cnc(N[C@H]4CC[C@H](O)CC4)nc23)OCC1=O (stereo partly drawn) [Example 529, N-[(4-ethyl-5-oxomorpholin-2-yl)methyl]-2-[(trans-4-hydroxycyclohexyl)amino]quinazoline-8-carboxamide] | 16 |
| Cc1noc(CNC(=O)c2cccc3cnc(N[C@H]4CC[C@H](O)CC4)nc23)n1 [Example 530, 2-[(trans-4-hydroxycyclohexyl)amino]-N-[(3-methyl-1,2,4-oxadiazol-5-yl)methyl]quinazoline-8-carboxamide] | 26 |
| Cc1cccn(CCNC(=O)c2cccc3cnc(N[C@H]4CC[C@H](O)CC4)nc23)c1=O [Example 531, 2-[(trans-4-hydroxycyclohexyl)amino]-N-[2-(3-methyl-2-oxopyridin-1(2H)-yl)ethyl]quinazoline-8-carboxamide] | 26 |

Same assay, conditions: @10 uM; read-out: % Inhibition JNK-1

| Structure (SMILES) | inhibition at 10 µM [%] |
| --- | --- |
| CC(=O)N1CCC(CNC(=O)c2cccc3cnc(N[C@H]4CC[C@H](O)CC4)nc23)CC1 [Example 505, N-[(1-acetylpiperidin-4-yl)methyl]-2-[(trans-4-hydroxycyclohexyl)amino]quinazoline-8-carboxamide] | 58 |
| CN(C)C(=O)CNC(=O)c1cccc2cnc(N[C@H]3CC[C@H](O)CC3)nc12 [Example 509, N-[2-(dimethylamino)-2-oxoethyl]-2-[(trans-4-hydroxycyclohexyl)amino]quinazoline-8-carboxamide] | 49 |
| Cc1nnc(C(C)NC(=O)c2cccc3cnc(N[C@H]4CC[C@H](O)CC4)nc23)[nH]1 (stereo partly drawn) [Example 510, 2-[(trans-4-hydroxycyclohexyl)amino]-N-[1-(5-methyl-4H-1,2,4-triazol-3-yl)ethyl]quinazoline-8-carboxamide] | 25 |
| Cc1nnc(CNC(=O)c2cccc3cnc(N[C@H]4CC[C@H](O)CC4)nc23)[nH]1 [Example 511, 2-[(trans-4-hydroxycyclohexyl)amino]-N-[(5-methyl-4H-1,2,4-triazol-3-yl)methyl]quinazoline-8-carboxamide] | 47 |
| Cc1cc(C)nc(CNC(=O)c2cccc3cnc(N[C@H]4CC[C@H](O)CC4)nc23)n1 [Example 512, N-[(4,6-dimethylpyrimidin-2-yl)methyl]-2-[(trans-4-hydroxycyclohexyl)amino]quinazoline-8-carboxamide] | 31 |
| O=C(NCc1ccc(C2CC2)cn1)c1cccc2cnc(N[C@H]3CC[C@H](O)CC3)nc12 [Example 518, N-[(5-cyclopropylpyridin-2-yl)methyl]-2-[(trans-4-hydroxycyclohexyl)amino]quinazoline-8-carboxamide] | 60 |
| Cc1noc(CCNC(=O)c2cccc3cnc(N[C@H]4CC[C@H](O)CC4)nc23)n1 [Example 523, 2-[(trans-4-hydroxycyclohexyl)amino]-N-[2-(3-methyl-1,2,4-oxadiazol-5-yl)ethyl]quinazoline-8-carboxamide] | 44 |
| Cc1ccn2cc(CCNC(=O)c3cccc4cnc(N[C@H]5CC[C@H](O)CC5)nc34)nc2n1 [Example 524, 2-[(trans-4-hydroxycyclohexyl)amino]-N-[2-(7-methylimidazo[1,2-a]pyrimidin-2-yl)ethyl]quinazoline-8-carboxamide] | 47 |
| CN1CC(CNC(=O)c2cccc3cnc(N[C@H]4CC[C@H](O)CC4)nc23)OCC1=O (stereo partly drawn) [Example 525, 2-[(trans-4-hydroxycyclohexyl)amino]-N-[(4-methyl-5-oxomorpholin-2-yl)methyl]quinazoline-8-carboxamide] | 41 |
| O=C(NCC1CN(C2CCC2)C(=O)CO1)c1cccc2cnc(N[C@H]3CC[C@H](O)CC3)nc12 (stereo partly drawn) [Example 526, N-[(4-cyclobutyl-5-oxomorpholin-2-yl)methyl]-2-[(trans-4-hydroxycyclohexyl)amino]quinazoline-8-carboxamide] | 41 |
